Results reported in paper PMC9014415, “Repositioning of a Diaminothiazole Series Confirmed to Target the Cyclin-Dependent Kinase CRK12 for Use in the Treatment of African Animal Trypanosomiasis” (Journal of Medicinal Chemistry, 2022).

System: T. brucei CRK12 (Tb927.11.12310) edited parasites
Assay: Sensitivity of CRISPR-Cas9-edited CRK12 T. brucei compared to wild-type
Format: cell-based, Trypanosoma brucei
From the text: Three unbiased and independent approaches converged to identify CRK12 as the likely target of compound 2. Next, we used CRISPR-Cas9 precision base editing to interrogate the role of CRK12-related mutations in resistance.[16] A codon-targeted saturation mutagenesis strategy was used to investigate mutations that could support resistance to compound 2 at positions 482 or 492. This was achieved using repair templates randomized (NNN) in these specific positions. […] These edited parasites were 133-fold less sensitive to compound 2 compared to wild-type parasites. In contrast, several different amino acids (Ile, Gln, Met, and Val) were tolerated in position 492. Each mutation conferred differing levels of resistance to compound 2, for instance, parasites bearing a Gly492Val edit were eightfold more tolerant to the compound than wild-type cells, while a Gly492Gln mutation led to 32-fold resistance (Figure 4B); parasites bearing a Gly492Ile or a Gly492Met edit behaved similarly to parasites bearing a Gly492Gln edit. […] This is most likely explained by the pronounced growth defect associated with all three of our resistant clones (R1–3) that harbor this specific mutation. […]
overall quality score (QUAL) was >100. Artemis13 was used to analyse chromosome and gene copy number variation (CNV), as well as visualisation of SNPs.
4.3 RIT-seq screening, Illumina sequencing and analysis
The RIT-seq library screening was performed as described previously.14 The RNAi library was maintained with blasticidin (1 µg ml-1) and phleomycin (1 µg ml-1) at a minimum of 2 x 10^7 cells. […]
Reads were mapped to the T. brucei 927 reference genome (v39; TriTrypDB [http://tritrypdb.org/]) using Bowtie 2 software,10 with the following parameter: --very-sensitive-local. Following manipulation with SAMtools11 the alignment files were searched with a custom script to identify reads with the following barcode: GCCTCGCGA.14 The total and barcoded reads were then quantified using the Artemis genome browser.15 […]

CC(C)CS(=O)(=O)N[C@H]1CC[C@H](Nc2nc(N)c(C(=O)c3c(F)cc(CN(C)C)cc3F)s2)CC1 [Compound 2, N-(trans)-[4-[[4-Amino-5-[4-(dimethylaminomethyl)-2,6-difluoro-benzoyl]thiazol-2-yl]amino]cyclohexyl]-2-methyl-propane-1-sulfonamide]
Resistance compared to wild-type (CRK12 Gly492Gln edit): 32 fold | Tolerance compared to wild-type (CRK12 Gly492Val edit): eightfold | Loss of sensitivity compared to wild-type (CRK12 Leu482Phe edit): 133 fold
